Earlier results as cited in patent US6821972B2, “3-heterocyclylpropanohydroxamic acid PCP inhibitors” (Pfizer Inc., priority 2001, dated 2004).
Non-standard residues stand in square brackets, D forms with d. Residues, ends and D or L forms follow the SMILES beside them. *: point of attachment. Sta = CC(C)C[C@H](N)[C@@H](O)CC(=O)O; Isovaleryl = CC(C)CC(=O)*

How the values were obtained:
keratinocyte migration = details: collagen type I matrix, in vitro
[1] = system: endothelial cell invasion of basement membrane

concanavalin A
inhibitory to PCP at low concentrations (PCP): inhibitory at low concentrations

N=C(N)NCCC[C@H](N)C(=O)O [arginine]
inhibition of PCP (in words) (PCP): inhibited

CC(C)C[C@H](NC(=O)[C@@H](NC(=O)N[C@@H](Cc1ccccc1)C(=O)O)[C@@H]1CCN=C(N)N1)C(=O)N[C@H](C=O)Cc1ccccc1 [chymostatin, reference compound]
inhibition of PCP (in words) (PCP): relatively strong inhibitors

phosphate
inhibitory to PCP at concentrations of 1-10 mM (PCP): inhibitory

CCCCCCCCCCCCOS(=O)(=O)[O-].[Na+] [SDS, reference compound]
inhibitory to PCP at low concentrations (PCP): inhibitory at low concentrations

CC(C)CC(=O)N[C@H](C(=O)N[C@H](C(=O)N[C@@H](CC(C)C)[C@@H](O)CC(=O)N[C@@H](C)C(=O)N[C@@H](CC(C)C)[C@@H](O)CC(=O)O)C(C)C)C(C)C [pepstatin A, reference compound] (Isovaleryl-VV[Sta]A[Sta]-OH)
inhibition of PCP (in words) (PCP): relatively strong inhibitors

CNC(=O)[C@H](Cc1ccc(OC)cc1)NC(=O)[C@@H](CC(=O)NO)CC(C)C [SC44463]
inhibition of keratinocyte migration (keratinocyte migration): completely inhibited

N.N.O=S(=O)(O)O [ammonium sulfate]
inhibitory to PCP at concentrations of 1-10 mM (PCP): inhibitory

O[C@H](CS)[C@H](O)CS (racemic) [Dithiothreitol, reference compound]
inhibitory to PCP at low concentrations (PCP): inhibitory at low concentrations

NCCCC[C@H](N)C(=O)O [lysine]
inhibition of PCP (in words) (PCP): inhibited

CNC(=O)[C@H](Cc1ccccc1)NC(=O)[C@H](CC(C)C)[C@H](CSc1cccs1)C(=O)NO [BB94, (2S,3R)-5-methyl-3-{[(1S)-1-(methylcarbamoyl)-2-phenylethyl]carbamoyl}-2-[(2-thienylthio)methyl]hexanohydroxamic acid]
inhibition of endothelial cell invasion [1]: inhibits endothelial cell invasion of basement membrane

Tris-HCl
inhibition of PCP activity by buffer (PCP; 0.2-0.5M): markedly inhibited activity

B1: α2-Macroglobulin: "α2-Macroglobulin, ovostatin, and fetal bovine serum appear to at least partially inhibit PCP activity" (protein, UniProt P01023 24-1474, looked up)
Alpha-2-macroglobulin: SVSGKPQYMVLVPSLLHTETTEKGCVLLSYLNETVTVSASLESVRGNRSLFTDLEAENDVLHCVAFAVPKSSSNEEVMFLTVQVKGPTQEFKKRTTVMVKNEDSLVFVQTDKSIYKPGQTVKFRVVSMDENFHPLNELIPLVYIQDPKGNRIAQWQSFQLEGGLKQFSFPLSSEPFQGSYKVVVQKKSGGRTEHPFTVEEFVLPKFEVQVTVPKIITILEEEMNVSVCGLYTYGKPVPGHVTVSICRKYSDASDCHGEDSQAFCEKFSGQLNSHGCFYQQVKTKVFQLKRKEYEMKLHTEAQIQEEGTVVELTGRQSSEITRTITKLSFVKVDSHFRQGIPFFGQVRLVDGKGVPIPNKVIFIRGNEANYYSNATTDEHGLVQFSINTTNVMGTSLTVRVNYKDRSPCYGYQWVSEEHEEAHHTAYLVFSPSKSFVHLEPMSHELPCGHTQTVQAHYILNGGTLLGLKKLSFYYLIMAKGGIVRTGTHGLLVKQEDMKGHFSISIPVKSDIAPVARLLIYAVLPTGDVIGDSAKYDVENCLANKVDLSFSPSQSLPASHAHLRVTAAPQSVCALRAVDQSVLLMKPDAELSASSVYNLLPEKDLTGFPGPLNDQDNEDCINRHNVYINGITYTPVSSTNEKDMYSFLEDMGLKAFTNSKIRKPKMCPQLQQYEMHGPEGLRVGFYESDVMGRGHARLVHVEEPHTETVRKYFPETWIWDLVVVNSAGVAEVGVTVPDTITEWKAGAFCLSEDAGLGISSTASLRAFQPFFVELTMPYSVIRGEAFTLKATVLNYLPKCIRVSVQLEASPAFLAVPVEKEQAPHCICANGRQTVSWAVTPKSLGNVNFTVSAEALESQELCGTEVPSVPEHGRKDTVIKPLLVEPEGLEKETTFNSLLCPSGGEVSEELSLKLPPNVVEESARASVSVLGDILGSAMQNTQNLLQMPYGCGEQNMVLFAPNIYVLDYLNETQQLTPEIKSKAIGYLNTGYQRQLNYKHYDGSYSTFGERYGRNQGNTWLTAFVLKTFAQARAYIFIDEAHITQALIWLSQRQKDNGCFRSSGSLLNNAIKGGVEDEVTLSAYITIALLEIPLTVTHPVVRNALFCLESAWKTAQEGDHGSHVYTKALLAYAFALAGNQDKRKEVLKSLNEEAVKKDNSVHWERPQKPKAPVGHFYEPQAPSAEVEMTSYVLLAYLTAQPAPTSEDLTSATNIVKWITKQQNAQGGFSSTQDTVVALHALSKYGAATFTRTGKAAQVTIQSSGTFSSKFQVDNNNRLLLQQVSLPELPGEYSMKVTGEGCVYLQTSLKYNILPEKEEFPFALGVQTLPQTCDEPKAHTSFQISLSVSYTGSRSASNMAIVDVKMVSGFIPLKPTVKMLERSNHVSRTEVSSNHVLIYLDKVSNQTLSLFFTVLQDVPVRDLKPAIVKVYDYYETDEFAIAEYNAPCSKDLGNA
inhibition of PCP (in words) (PCP): at least partially inhibit

B2: ovostatin: "α2-Macroglobulin, ovostatin, and fetal bovine serum appear to at least partially inhibit PCP activity" (protein, UniProt P20740 37-1473, looked up)
Ovostatin: KEPEPQYVLMVPAVLQSDSPSQVCLQFFNLNQTISVRVVLEYDTINTTIFEKNTTTSNGLQCLNFMIPPVTSVSLAFISFTAKGTTFDLKERRSVMIWNMESFVFVQTDKPIYKPGQSVMFRVVALDFNFKPVQEMYPLIAVQDPQNNRIFQWQNVTSEINIVQIEFPLTEEPILGNYKIIVTKKSGERTSHSFLVEEYVLPKFDVTVTAPGSLTVMDSELTVKICAVYTYGQPVEGKVQLSVCRDFDSYGRCKKSPVCQSFTKDLDTDGCLSHILSSKVFELNRIGYKRNLDVKAIVTEKEQVCNLTATQSISITQVMSSLQFENVDHHYRRGIPYFGQIKLVDKDNSPISNKVIQLFVNNKNTHNFTTDINGIAPFSIDTSKIFDPELSLKALYKTSDQCHSEGWIEPSYPDASLSVQRLYSWTSSFVRIEPLWKDMSCGQKRMITVYYILNTEGYEHINIVNFYYVGMAKGKIVLTGEIKVNIQADQNGTFMIPLVVNEKMAPALRLLVYMLHPAKELVADSVRFSIEKCFKNKVQLQFSEKQMLTTSNVSLVIEAAANSFCAVRAVDKSMLLLKSETELSAETIYNLHPIQDLQGYIFNGLNLEDDPQDPCVSSDDIFHKGLYYRPLTSGLGPDVYQFLRDMGMKFFTNSKIRQPTVCTRETVRPPSYFLNAGFTASTHHVKLSAEVAREERGKRHILETIREFFPETWIWDIILINSTGKASVSYTIPDTITEWKASAFCVEELAGFGMSVPATLTAFQPFFVDLTLPYSIIHGEDFLVRANVFNYLNHCIKINVLLLESLDYQAKLISPEDDGCVCAKIRKSYVWNIFPKGTGDVLFSITAETNDDEACEEEALRNIRIDYRDTQIRALLVEPEGIRREETQNFLICMKDDVISQDVAIDLPTNVVEGSPRPSFSVVGDIMGTAIQNVHQLLQMPFGNGEQNMVLFAPNIYVLDYLDKTRQLSEDVKSKTIGYLVSGYQKQLSYKHPDGSYSTFGIRDKEGNTWLTAFVYKSFAEASRFIYIDDNVQAQTLIWLATKQKTDGCFQSTGILVNNAMKGGVENELSLSAYITIALLEAGHSMSHTVIRNAFYCLETASEKNITDIYTQALVAYAFCLAGKAEICESFLRELQKSAKEVDGSKYWEQNQRSAPEKSHLLDHVQSTDVEITSYVLLALLYKPNRSQEDLTKASAIVQWIIRQQNSYGGFASMQDTVVALQALAAYGAATYNSVTQNVIKINSKNTFEKVFTVNNENRLLLQQTPLPQVPGKYSLTVNGTGCVLIQTALRYNIHLPEGAFGFSLSVQTSNASCPRDQPGKFDIVLISSYTGKRSSSNMVIIDVKMLSGFVPVKSSLDQLIDDHTVMQVEYKKNHVLLYLGNILQKRRKEVTFSVEQDFVVTHPKPAPVQIYDYYETEEYAVAEYMSLCRGVVEEMG
inhibition of PCP (in words) (PCP): at least partially inhibit
